Legend:
[1] = test system: PC3 human prostata tumor cell line; assay: XTT cell viability (antitumoral activity), PC3; assay type: cell-based; settings: incubation time (4 h or 60 h) not stated, read-out: CI50 (μM) prostata PC3
Description: (§1) The antitumor activity of inventive compounds was evaluated measuring cell metabolic capacity (viability), using the XTT kit and following the recommendations of the manufacturer (Roche Diagnostics). The assays were carried out a minimum of five times, with controls containing unexposed cells, cells with vehicle, or media plus compound. Cells were seeded into 96-well plates in 100 μl of media and incubated for 24 h. Afterwards, the inventive compounds were added at different combination of concentrations (from 1 μM to 80 μM) for 4 h (short time XTT) or 60 h (long time XTT). At the end of the incubation period, 50 μl of a mixture containing XTT and electron coupling reagent to each well were added. After 4 h of incubation at 37° C. the absorbance at 490 nm was noted. The growth inhibitory activity of each compound, was obtained subtracting the absorbance of the blanks and expressed as percentage of cell growth inhibition, as compared with untreated controls. The inhibitory concentration 50 (IC50) was determined from the dose-response curves of compound concentration versus percentage of cell viability with the Hill sigmoidal equation (three parameters), using Sigmaplot 5.0 software.

COX-1 = COX-1 (Homo sapiens, UniProt P23219); assay: Inhibition of enzyme COX-1; assay type: biochemical
COX-2 = target: T1, COX-2 (Homo sapiens, UniProt P35354); assay: Inhibition of enzyme COX-2; assay type: biochemical
T1 sequence (P35354 18-604): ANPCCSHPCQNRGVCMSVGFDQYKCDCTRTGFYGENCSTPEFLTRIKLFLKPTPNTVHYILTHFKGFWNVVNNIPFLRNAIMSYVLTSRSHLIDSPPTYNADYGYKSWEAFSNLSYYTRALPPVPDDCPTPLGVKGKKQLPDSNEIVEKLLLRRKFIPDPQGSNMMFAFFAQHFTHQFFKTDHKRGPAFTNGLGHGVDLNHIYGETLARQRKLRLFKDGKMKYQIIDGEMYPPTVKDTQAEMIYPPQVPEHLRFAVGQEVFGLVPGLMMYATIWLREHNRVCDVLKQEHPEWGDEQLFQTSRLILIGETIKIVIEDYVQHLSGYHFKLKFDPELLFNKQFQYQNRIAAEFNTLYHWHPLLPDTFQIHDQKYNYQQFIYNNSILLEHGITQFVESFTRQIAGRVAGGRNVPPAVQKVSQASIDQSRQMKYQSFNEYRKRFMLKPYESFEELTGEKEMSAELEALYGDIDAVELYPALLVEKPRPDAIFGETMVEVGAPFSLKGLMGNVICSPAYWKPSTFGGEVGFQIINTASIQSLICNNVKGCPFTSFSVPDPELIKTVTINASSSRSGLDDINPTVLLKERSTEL

[2] = test system: HT29 human colon tumor cell line; assay: XTT cell viability (antitumoral activity), HT29; assay type: cell-based; settings: HT-29, incubation time (4 h or 60 h) not stated, read-out: CI50 (μM) colon HT29
Description: as §1

[3] = test system: HCA7 human colon tumor cell line; assay: XTT cell viability (antitumoral activity), HCA7; assay type: cell-based; settings: HCA-7, incubation time (4 h or 60 h) not stated, read-out: CI50 (μM) colon HCA7
Description: as §1

[4] = test system: NC59 human colon tumor cell line; assay: XTT cell viability (antitumoral activity), NC59; assay type: cell-based; settings: incubation time (4 h or 60 h) not stated, read-out: CI50 (μM) colon NC59
Description: as §1

COX-1, sequence (P23219 24-599): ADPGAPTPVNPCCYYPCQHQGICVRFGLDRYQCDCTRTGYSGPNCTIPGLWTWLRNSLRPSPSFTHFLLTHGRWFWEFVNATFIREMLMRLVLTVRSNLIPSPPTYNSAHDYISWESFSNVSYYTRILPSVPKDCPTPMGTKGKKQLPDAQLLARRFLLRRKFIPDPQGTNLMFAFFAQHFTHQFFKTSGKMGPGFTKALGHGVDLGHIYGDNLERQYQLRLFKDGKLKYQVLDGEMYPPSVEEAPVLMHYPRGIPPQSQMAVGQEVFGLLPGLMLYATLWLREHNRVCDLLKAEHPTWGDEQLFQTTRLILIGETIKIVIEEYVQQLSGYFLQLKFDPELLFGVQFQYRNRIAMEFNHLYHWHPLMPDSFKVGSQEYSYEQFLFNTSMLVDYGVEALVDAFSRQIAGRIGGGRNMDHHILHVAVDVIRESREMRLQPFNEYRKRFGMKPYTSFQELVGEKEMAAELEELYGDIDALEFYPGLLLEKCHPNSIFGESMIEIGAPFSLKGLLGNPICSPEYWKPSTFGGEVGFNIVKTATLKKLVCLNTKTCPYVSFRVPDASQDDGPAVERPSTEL

SMILES | IC50 [1] [µM] | melting point [°C] | inhibiting activity of enzyme COX-1 (COX-1) | inhibiting activity of enzyme COX-2 (COX-2) | IC50 [2] [µM] | IC50 [3] [µM] | IC50 [4] [µM]
NS(=O)(=O)c1ccc(N2N=C(C(F)(F)F)CC2c2cc(C(F)(F)F)cc(C(F)(F)F)c2)cc1 (stereo not drawn) [Example 2, 4-[5-(3,5-bis-trifluoromethyl-phenyl)-3-trifluoromethyl-4,5-dihydro-pyrazol-1-yl]-benzenesulfonamide] | 10.6 | 195 to 197 | do not display any inhibiting activity | do not display any inhibiting activity |  |  | 
Cc1ccc(-c2cc(C(F)(F)F)nn2-c2ccc(S(N)(=O)=O)cc2)cc1 [Celecoxib, reference compound] | 30.6 |  |  |  | 21.5 | 26.5 | 18.2
Cc1ccc(C)c(C2CC(C(F)(F)F)=NN2c2ccc(S(N)(=O)=O)cc2)c1 (stereo not drawn) [Example 1, 4-[5-(2,5-dimethyl-phenyl)-3-trifluoromethyl-4,5-dihydro-pyrazol-1-yl]-benzenesulfonamide] | 12.3 | 200 to 202 | do not display any inhibiting activity | do not display any inhibiting activity | 14.9 | 10.5 | 16.3

From US20050182119A1, “Substituted pyrazoline derivatives” (priority 2004, published 2005)
